Where a name gives a salt, the structure may show the parent alone.
Biological target: Pdr5 (Saccharomyces cerevisiae, UniProt P33302, A666G)
Test: inhibition of R6G transport in whole cells
Assay type: cell-based

Pdr5, sequence (P33302 whole entry A666G): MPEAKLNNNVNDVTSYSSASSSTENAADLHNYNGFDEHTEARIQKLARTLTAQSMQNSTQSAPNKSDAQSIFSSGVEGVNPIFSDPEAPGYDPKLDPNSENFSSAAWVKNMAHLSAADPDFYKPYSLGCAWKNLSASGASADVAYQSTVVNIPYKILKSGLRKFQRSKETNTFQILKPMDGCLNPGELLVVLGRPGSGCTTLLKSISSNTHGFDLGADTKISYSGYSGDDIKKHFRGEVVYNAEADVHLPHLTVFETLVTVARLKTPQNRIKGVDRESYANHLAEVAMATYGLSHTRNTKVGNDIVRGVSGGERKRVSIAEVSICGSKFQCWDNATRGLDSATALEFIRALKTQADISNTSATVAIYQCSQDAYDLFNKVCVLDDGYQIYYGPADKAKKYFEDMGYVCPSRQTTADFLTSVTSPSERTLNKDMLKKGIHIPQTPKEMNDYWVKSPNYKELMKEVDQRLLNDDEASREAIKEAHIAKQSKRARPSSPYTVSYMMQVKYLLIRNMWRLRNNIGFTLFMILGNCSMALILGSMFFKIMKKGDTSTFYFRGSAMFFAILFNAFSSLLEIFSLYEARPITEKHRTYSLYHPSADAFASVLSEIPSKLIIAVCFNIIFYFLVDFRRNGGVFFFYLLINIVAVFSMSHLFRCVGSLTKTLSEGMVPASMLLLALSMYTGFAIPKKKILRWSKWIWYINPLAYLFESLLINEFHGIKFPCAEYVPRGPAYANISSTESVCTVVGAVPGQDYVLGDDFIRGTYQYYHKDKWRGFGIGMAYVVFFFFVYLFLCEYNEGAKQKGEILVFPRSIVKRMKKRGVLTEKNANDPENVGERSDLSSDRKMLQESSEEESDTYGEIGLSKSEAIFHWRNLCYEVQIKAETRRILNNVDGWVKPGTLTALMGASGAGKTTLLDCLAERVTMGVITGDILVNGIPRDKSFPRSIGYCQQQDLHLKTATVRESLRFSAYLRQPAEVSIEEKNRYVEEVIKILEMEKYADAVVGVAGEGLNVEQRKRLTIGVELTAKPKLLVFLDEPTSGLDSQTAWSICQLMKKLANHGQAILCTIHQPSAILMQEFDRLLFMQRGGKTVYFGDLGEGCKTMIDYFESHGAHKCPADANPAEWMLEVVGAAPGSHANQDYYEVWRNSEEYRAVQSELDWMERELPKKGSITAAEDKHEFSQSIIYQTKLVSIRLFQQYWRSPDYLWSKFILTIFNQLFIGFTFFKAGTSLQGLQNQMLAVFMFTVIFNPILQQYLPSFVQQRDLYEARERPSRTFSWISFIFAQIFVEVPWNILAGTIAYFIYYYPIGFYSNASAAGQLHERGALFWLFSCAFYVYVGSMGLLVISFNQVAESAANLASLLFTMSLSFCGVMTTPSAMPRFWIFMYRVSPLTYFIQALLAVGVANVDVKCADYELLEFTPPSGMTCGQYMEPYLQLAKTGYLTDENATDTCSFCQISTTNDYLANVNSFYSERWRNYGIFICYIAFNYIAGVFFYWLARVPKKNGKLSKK

`C=CCOC(Cn1ccnc1)c1ccc(Cl)cc1Cl` (stereo not shown) [imazalil sulfate] was tested, and the IC50 was ~100 µM.

— paper PMC6800772 (Molecular microbiology, 2019)
